Reference: paper PMC11350846, “Synthesis of Second-Generation Analogs of Temporin-SHa Peptide Having Broad-Spectrum Antibacterial and Anticancer Effects” (Antibiotics, 2024)
Where a SMILES comes first, the peptide text is derived from it. [ ]: non-standard residue; d: D form.

Experiments:
[1] = system: Normal Lung Epithelium (BEAS-2B); type: cell-based, human; conditions: BEAS-2B normal cells, 48 h; read-out: 50% inhibitory concentrations (IC50), cell proliferation
Procedure: (§1) The antiproliferative activity of the peptides was evaluated, as previously described using human cancer cell lines (A549 (lung), A2780 (ovary), HepG-2 (liver), MCF-7 (breast), MiaPaCa-2 (pancreas), MNT-1 (skin), and PC-3 (prostate)) and normal human lung fibroblasts (IMR-90) or epithelial cells (BEAS-2B). The cells were cultured in DMEM supplemented with 10% FBS, 1% L-glutamine, and 1% antibiotics at 37 °C in a 5% CO2 incubator. For the antiproliferative assay, cells were seeded in 96-well plates at approximately 3000 cells/well. Twenty-four hours later, cells were treated with increasing concentrations of peptides (1:2 serial dilution from 100 µM to 0 µM) for 48 h. After treatment, the number of viable cells was determined using a resazurin-based assay, and the fluorescence intensity was measured with a microplate reader (Ex 530 nm/Em 590 nm). The IC50 values of the peptides (i.e., the concentrations causing 50% inhibition of cell proliferation) were determined using GraphPad® Prism 7 software. The experiments were performed in triplicate (n = 3). The cytotoxicity of the peptides was also evaluated using confluent/no-dividing cells, as previously described. Briefly, human cells were seeded onto 96-well plates at 20,000 cells/well. When they reached 80–90% confluence (after 24–48 h), cells were treated with escalating concentrations of peptides. After 48h incubation, cell viability was measured using a resazurin assay and CC50 (i.e., the concentrations causing 50% inhibition of cell viability) and determined using GraphPad® Prism 7 software. The experiments were performed in triplicate (n = 3).

[2] = system: Pancreatic Cancer (MiaPaCa-2); type: cell-based, human; conditions: MiaPaCa-2, 48 h; read-out: 50% inhibitory concentrations (IC50), cell proliferation
Procedure: as §1

[3] = system: Normal Lung Fibroblast (IMR-90); type: cell-based, human; conditions: IMR-90 normal cells, 48 h; read-out: 50% inhibitory concentrations (IC50), cell proliferation
Procedure: as §1

[4] = system: Ovarian Cancer (A2780); type: cell-based, human; conditions: A2780, 48 h; read-out: 50% inhibitory concentrations (IC50), cell proliferation
Procedure: as §1

[5] = system: Skin Cancer (MNT-1); type: cell-based, human; conditions: MNT-1, 48 h; read-out: 50% inhibitory concentrations (IC50), cell proliferation
Procedure: as §1

[6] = system: Prostate Cancer (PC-3); type: cell-based, human; conditions: PC-3, 48 h; read-out: 50% inhibitory concentrations (IC50), cell proliferation
Procedure: as §1

[7] = system: Lung Cancer (A549); type: cell-based, human; conditions: A549, 48 h; read-out: 50% inhibitory concentrations (IC50), cell proliferation
Procedure: as §1

[8] = system: Breast Cancer (MCF-7); type: cell-based, human; conditions: MCF-7, 48 h; read-out: 50% inhibitory concentrations (IC50), cell proliferation
Procedure: as §1

[9] = system: Liver Cancer (HepG-2); type: cell-based, human; conditions: HepG-2, 48 h; read-out: 50% inhibitory concentrations (IC50), cell proliferation
Procedure: as §1

[10] = system: E. faecium (DSM 20477); conditions: E. faecium (DSM 20477), micro-aerobic, 18-24 h
Procedure: (§2) The peptides were assessed for their antibacterial activity by determining the minimum inhibitory concentration (MIC) using the two-fold serial dilution method following the National Committee of Clinical Laboratory Standards, as previously described. Gram-negative (Acinetobacter baumannii (DSM 30007), Escherichia coli (ATCC 8739), Enterobacter cloacae (DSM 30054), Helicobacter pylori (ATCC 43504), Klebsiella pneumoniae (DSM 26371), Pseudomonas aeruginosa (ATCC 9027)) and Gram-positive bacteria (Bacillus subtilis (ATCC 6633), Enterococcus faecalis (DSM 2570), Enterococcus faecium (DSM 20477), Staphylococcus aureus (ATCC 6538)) were used for the antibacterial activity assays. In brief, 3 mL of Mueller–Hinton (MH) broth was inoculated with single clusters of the various bacterial strains and incubated overnight at 37 °C with agitation at 200 rpm. The next day, the bacterial solution was diluted with sterile MH by 1/100 and further incubated at 37 °C and 200 rpm until the bacteria reached the log phase growth (OD600nm around 0.6). The bacterial suspension was then adjusted to a density of approximately 10^5 bacteria/mL, and 100 μL was added per well of 96-well microplates (Greiner BioOne, Les Ulis, France), followed by exposure to increasing concentrations of peptides (from 0 to 100 µM, 1:2 dilution). Plates were then incubated at 37 °C for 18-24 h under either aerobic (for A. baumannii, E. cloacae, E. coli, P. aeruginosa, B. subtilis, and S. aureus) or micro-aerobic conditions generated using GasPak units (for E. faecalis, E. faecium and, H. pylori). […] The optical density (OD) at 600nm was measured using a microplate reader (Biotek, Synergy Mx, Les Ulis, France) after the final incubation. All experiments were performed in triplicate (n = 3).

[11] = system: E. faecalis (DSM 2570); conditions: E. faecalis (DSM 2570), micro-aerobic, 18-24 h
Procedure: as §2

[12] = system: B. subtilis (ATCC 6633); conditions: 18-24 h
Procedure: as §2

[13] = system: E. cloacae (DSM 30054); conditions: E. cloacae (DSM 30054), 18-24 h
Procedure: as §2

[14] = system: A. baumannii (DSM 30007); conditions: A. baumannii (DSM 30007), 18-24 h
Procedure: as §2

[15] = system: E. coli (ATCC 8739); conditions: E. coli (ATCC 8739), 18-24 h
Procedure: as §2

[16] = system: S. aureus (ATCC 6538); conditions: 18-24 h
Procedure: as §2

[17] = system: K. pneumonia (DSM 26371); conditions: K. pneumonia (DSM 26371), 18-24 h
Procedure: as §2

[18] = system: H. pylori (ATCC 43504); conditions: micro-aerobic, 18-24 h
Procedure: as §2

[19] = system: P. aeruginosa (ATCC 9027); conditions: P. aeruginosa (ATCC 9027), 18-24 h
Procedure: as §2

Structure (SMILES) | IC50 [1] [µM] | IC50 [2] [µM] | IC50 [3] [µM] | IC50 [4] [µM] | IC50 [5] [µM] | IC50 [6] [µM] | IC50 [7] [µM] | IC50 [8] [µM] | IC50 [9] [µM] | minimum inhibitory concentration (MIC) [10] [µM] | minimum inhibitory concentration (MIC) [11] [µM] | minimum inhibitory concentration (MIC) [12] [µM] | minimum inhibitory concentration (MIC) [13] [µM] | minimum inhibitory concentration (MIC) [14] [µM] | minimum inhibitory concentration (MIC) [15] [µM] | minimum inhibitory concentration (MIC) [16] [µM] | minimum inhibitory concentration (MIC) [17] [µM] | minimum inhibitory concentration (MIC) [18] [µM] | minimum inhibitory concentration (MIC) [19] [µM]
CC[C@H](C)[C@H](NC(=O)CNC(=O)[C@H](CO)NC(=O)[C@H](CC(C)C)NC(=O)[C@@H](N)Cc1ccccc1)C(=O)N[C@H](C(=O)NCC(=O)N[C@@H](CCSC)C(=O)N[C@@H](CC(C)C)C(=O)NCC(=O)N[C@@H](CCCCN)C(=O)N[C@@H](CC(C)C)C(=O)N[C@@H](Cc1ccccc1)C(N)=O)C(C)C [Temporin-SHa (1), H-Phe^1-Leu^2-Ser^3-Gly^4-IIe^5-Val^6-Gly^7-Met^8-Leu^9-Gly^10-Lys^11-Leu^12-Phe^13-NH2, reference compound] (H-FLSGIVGMLGKLF-NH2) | > 100 | > 100 | > 100 | > 100 | > 100 | > 100 | > 100 | 26.9 ± 8.2 | > 100 | 6.25 | 12.5 | 1.56 | 50 | 6.25 | 50 | 3.12 | 50 | 3.12 | 50
CC[C@H](C)[C@H](NC(=O)CNC(=O)[C@H](CO)NC(=O)[C@H](CC(C)C)NC(=O)[C@@H](N)Cc1ccccc1)C(=O)N[C@H](C(=O)NCC(=O)N[C@@H](CCSC)C(=O)N[C@@H](CC(C)C)C(=O)N[C@H](C)C(=O)N[C@@H](CCCCN)C(=O)N[C@@H](CC(C)C)C(=O)N[C@@H](Cc1ccccc1)C(N)=O)C(C)C [[G10a]-SHa (2), H-Phe^1-Leu^2-Ser^3-Gly^4-IIe^5-Val^6-Gly^7-Met^8-Leu^9-D-Ala^10-Lys^11-Leu^12-Phe^13-NH2] (H-FLSGIVGML[dA]KLF-NH2) | 22.6 ± 0.7 | 23.1 ± 4.3 | 33 ± 3.1 | 13.4 ± 0.7 | 14 ± 0.8 | 13.1 ± 2.4 | 12.1 ± 0.4 | 18.3 ± 8 | 37.2 ± 5 | >100 | 25 | 3.12 | >100 | 12.5 | 100 | 3.12 | 100 | 3.12 | >100
